For seven molecules, PC50 results are on record in ChEMBL document CHEMBL2163295, “Uvaridacols E-H, highly oxygenated antiausterity agents from Uvaria dac” (2012).

Experiment [1] relates to PANC-1. Briefly: Cytotoxicity against human PANC1 cells grown in nutrient-deprived medium after 24 hrs by WST8 assay. The experiment is classed as functional. For orientation: Tetrazolium assays rely on reduction of a dye to a coloured formazan, in cell work by metabolically active cells.
The subject of experiment [2] is PANC-1. Nature of the experiment: Cytotoxicity against human PANC1 cells grown in DMEM medium after 24 hrs by WST8 assay. Type of experiment: functional.

In the experiment with PANC-1 [1], `COc1cc(C[C@H]2C(=O)OC[C@@H]2Cc2ccc(OC)c(OC)c2)ccc1O` [ARCTIGENIN] showed a PC50 of 1 µM.

Take `O=c1[nH]cc(F)c(=O)[nH]1` [FLUOROURACIL]: the PC50 with PANC-1 [2] and in the experiment on PANC-1 [1] was more than 200 µM throughout.

On to `Nc1ccn([C@@H]2O[C@H](CO)[C@@H](O)C2(F)F)c(=O)n1` [GEMCITABINE], for which the PC50 in the experiment on PANC-1 [2] and with PANC-1 [1] was more than 200 µM in each case.

On to `O=C(OC[C@]1(O)C=C[C@H](O)[C@@H](OC(=O)c2ccccc2)[C@@H]1O)c1ccccc1` [UVARIDACOL E], for which the PC50 in the experiment on PANC-1 [1] was 135 µM.

On to `CC(=O)O[C@@H]1[C@@H](OC(=O)c2ccccc2)[C@@H](O)C=C[C@]1(O)COC(=O)c1ccccc1` [UVARIDACOL F], for which the PC50 with PANC-1 [1] was 124 µM.

Regarding `O=C(OC[C@]1(O)C=C[C@@H](O)[C@H](O)[C@H]1OC(=O)c1ccccc1)c1ccccc1` [UVARIDACOL G], the PC50 with PANC-1 [1] is more than 200 µM.

`CC(=O)O[C@@H]1[C@@H](O)[C@H](OC(=O)c2ccccc2)C=C[C@@]1(O)COC(=O)c1ccccc1` [UVARIDACOL H]: the PC50 in the experiment on PANC-1 [1] was found to be 156 µM.
